Experimental data taken from ChEMBL document CHEMBL6083210, “Exploring apoptotic induction of malabaricone A in triple-negative breast cancer cells: an acylphenol phyto-entity isolated from the fruit rind of Myristica malabarica Lam” (RSC Med Chem, 2024).

Key:
Format in all cases: functional, cell-based
MCF-10A = experiment: Antiproliferative activity against human MCF-10A cells assessed as reduction in cell viability incubated for 24 hrs by MTT assay
SK-BR-3 = experiment: Antiproliferative activity against human SK-BR-3 cells assessed as reduction in cell viability incubated for 24 hrs by MTT assay; details: SK-BR-3, 24 h
MDA-MB-231 = experiment: Antiproliferative activity against human MDA-MB-231 cells assessed as reduction in cell viability incubated for 24 hrs by MTT assay; details: MDA-MB-231, 24 h

Q: Which IC50 (MCF-10A) does the source give for `O=C(CCCCCCCCc1ccc(O)c(O)c1)c1c(O)cccc1O` [MALABARICONE C] here?
A: 97.3 µM

Q: And the IC50 (SK-BR-3)?
A: 16.4 µM

Q: And the IC50 (MDA-MB-231)?
A: 19.6 µM

Q: Which results are given for `O=C(CCCCCCCCc1ccc2c(c1)OCO2)c1c(O)cccc1O`?
A: IC50 (MCF-10A): 82.6 µM; IC50 (SK-BR-3): 9.3 µM; IC50 (MDA-MB-231): 15.1 µM
